Results as given in ChEMBL document CHEMBL4840355, “Antitumor and toxicity study of mitochondria-targeted triptolide derivatives using triphenylphosphine (TPP+) as a carrier” (Bioorg Med Chem, 2021).
Activity calls are given as the source filed them. The calls are words filed in the database; no cut-off is given here.

Experiments:
HepG2 [1] = test: Induction of apoptosis in human HepG2 cells assessed as necrotic cells at 75 nM measured after 48 hrs by Annexin V-FITC/PI double staining based flow cytometry analysis (Rvb= 0.13%); type: functional
[2] = Cytotoxicity against human A549/DDP cells assessed as inhibition of cell proliferation measured after 48 hrs by MTT assay; type: functional, cell-based
[3] = Toxicity in zebrafish AB assessed as increase in embryo malformation rate at 0.05 to 2 uM measured at 72 hrs postfertilization; parameters: species or system Danio rerio; settings: in vivo, dose 0.05-2 µM
[4] = Toxicity in zebrafish AB assessed as mortality at <12 uM measured at 72 hrs postfertilization; parameters: species or system Danio rerio; settings: in vivo
HepG2 [5] = test: Induction of mitochondrial membrane potential loss in human HepG2 cells assessed as proportion of cells with hyperpolarized mitochondria at 50 nM measured after 48 hrs by JC-1 staining based flow cytometry analysis (Rvb= 80.9%); type: functional
HepG2 [6] = test: Induction of apoptosis in human HepG2 cells assessed as early apoptotic cells at 100 nM measured after 48 hrs by Annexin V-FITC/PI double staining based flow cytometry analysis (Rvb= 2.16%); type: functional
[7] = Toxicity in zebrafish AB assessed as increase in hatching rate at 0.05 to 2 uM measured at 72 hrs postfertilization; parameters: species or system Danio rerio; settings: in vivo, dose 0.05-2 µM
HepG2 [8] = test: Induction of apoptosis in human HepG2 cells assessed as late apoptotic cells at 50 nM measured after 48 hrs by Annexin V-FITC/PI double staining based flow cytometry analysis (Rvb= 2.89%); type: functional
HepG2 [9] = test: Induction of apoptosis in human HepG2 cells assessed as induction of morphological changes by measuring nuclear shrinkage and cleavage at 25 to 100 nM measured after 48 hrs by DAPI staining based inverted fluorescence microscope analysis; type: functional, cell-based; settings: dose 25-100 nM
HepG2 [10] = test: Induction of apoptosis in human HepG2 cells assessed as necrotic cells at 150 nM measured after 48 hrs by Annexin V-FITC/PI double staining based flow cytometry analysis (Rvb= 0.13%); type: functional
HepG2 [11] = test: Induction of apoptosis in human HepG2 cells assessed as early apoptotic cells at 50 nM measured after 48 hrs by Annexin V-FITC/PI double staining based flow cytometry analysis (Rvb= 2.16%); type: functional
HepG2 [12] = test: Induction of mitochondrial membrane potential loss in human HepG2 cells assessed as proportion of cells with hyperpolarized mitochondria at 150 nM measured after 48 hrs by JC-1 staining based flow cytometry analysis (Rvb= 80.9%); type: functional
HepG2 [13] = test: Induction of mitochondrial membrane potential loss in human HepG2 cells assessed as proportion of cells with depolarized mitochondria at 75 nM measured after 48 hrs by JC-1 staining based flow cytometry analysis (Rvb= 9.1%); type: functional
PANC-1 = test: Cytotoxicity against human PANC-1 cells assessed as inhibition of cell proliferation measured after 48 hrs by MTT assay; type: functional, cell-based; settings: PANC-1, 48 h
HepG2 [14] = test: Induction of apoptosis in human HepG2 cells assessed as necrotic cells at 50 nM measured after 48 hrs by Annexin V-FITC/PI double staining based flow cytometry analysis (Rvb= 0.13%); type: functional
HeLa = test: Cytotoxicity against human HeLa cells assessed as inhibition of cell proliferation measured after 48 hrs by MTT assay; type: functional, cell-based

CC(C)[C@]12O[C@H]1[C@@H]1O[C@]13[C@]1(O[C@H]1C[C@H]1C4=C(CC[C@@]13C)C(=O)OC4)[C@@H]2OC(=O)CCCCC[P+](c1ccccc1)(c1ccccc1)c1ccccc1.[Br-]
Activity (HepG2 [1]): 0.17% | IC50 [2]: > 10 µM | Activity [3]: Non-Toxic | Activity [4]: Non-Toxic | Activity (HepG2 [5]): 74.7% | Activity (HepG2 [6]): 27.8% | Activity [7]: Non-Toxic | Activity (HepG2 [8]): 1.23% | Activity (HepG2 [9]): Active | Activity (HepG2 [10]): 0.1% | Activity (HepG2 [11]): 3.89% | Activity (HepG2 [12]): 51.1% | Activity (HepG2 [13]): 35.6% | IC50 (PANC-1): 0.349 µM | Activity (HepG2 [14]): 0.63% | IC50 (HeLa): 0.325 µM
